For one assay, the target named is KRAS G12C-BRAF complex (Homo sapiens (Human), UniProt P01116+P62937, G12C). The assay can be described thus: KRAS-BRAF with CYPA (500 nM) interaction assay (TR-FRET, Example 136). The format is biochemical. The note with it: KRAS G12C-BRAF disruption. (In TR-FRET formats the signal depends on donor and acceptor labels being close together.)
In assay [1] the test system is NCI-H358 cells (KRAS G12C). The assay can be described thus: Cell viability assay (Cell Counting Kit-8, 3-day). It is filed as cell-based, human. The note with it: Homo sapiens, NCI-H358, 72 h, NCI-H358, 72 hrs incubation. Put shortly: (§1)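 IC50 derived by 4-parameter sigmoidal fit of CCK-8 signal (OD450−OD650, 2 h development) after 72 h compound exposure in 0.5% DMSO. Seeding density was 5,000 cells/well for NCI-H358 and 2,000 cells/well for AGS and SW620, plated overnight before dosing.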
In general terms: Tetrazolium dyes change colour on reduction, which living cells bring about.

The next assay concerns AGS cells (KRAS G12D). Briefly: Cell viability assay (Cell Counting Kit-8, 3-day). The format is cell-based, human. The note with it: Homo sapiens, 72 h, 72 hrs incubation. An outline of the steps:
as §1

The next assay has as its system SW620 cells (KRAS G12V). The assay can be described thus: Cell viability assay (Cell Counting Kit-8, 3-day). The format is cell-based, human. The following applies: Homo sapiens, SW-620; SW620, 72 hrs incubation. Put shortly: as §1
Assay [2] concerns phosphorylation of ERK, KRAS G12D in AGS cells. Briefly: pERK inhibition assay. The following applies: Homo sapiens, AGS, 4 h. The format is cell-based. Put shortly: (§2)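 NCI-H358 (KRAS G12C), AGS (G12D) and SW620 (G12V) cells plated overnight, then treated with compound for 4 h in 0.5% DMSO. After fixing and methanol permeabilisation, phospho-ERK was detected by in-cell ELISA (HRP/TMB, OD450). IC50 from a 4-parameter sigmoidal fit.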

Assay [3] relates to phosphorylation of ERK, KRAS G12V in SW620. The assay can be described thus: pERK inhibition assay. The format is cell-based. The note with it: Homo sapiens, SW-620, 4 h, SW620 cells. Put shortly: as §2
In assay [4] the test system is phosphorylation of ERK, KRAS G12C in NCI-H358 cells. The assay can be described thus: pERK inhibition assay. The format is cell-based. The note with it: Homo sapiens, NCI-H358, 4 h. An outline of the steps: as §2

A value given as a limit tells only on which side of the number the result lay.

KRAS G12C-BRAF complex, sequence (P01116-2 other isoform, or with tags, fused parts or gaps G12C): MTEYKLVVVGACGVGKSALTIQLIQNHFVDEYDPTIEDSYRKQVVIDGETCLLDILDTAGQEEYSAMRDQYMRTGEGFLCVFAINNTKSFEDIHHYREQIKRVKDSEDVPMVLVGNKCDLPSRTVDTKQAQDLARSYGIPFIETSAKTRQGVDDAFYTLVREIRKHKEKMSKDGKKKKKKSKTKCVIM
KRAS G12C-BRAF complex, sequence (P62937 whole entry): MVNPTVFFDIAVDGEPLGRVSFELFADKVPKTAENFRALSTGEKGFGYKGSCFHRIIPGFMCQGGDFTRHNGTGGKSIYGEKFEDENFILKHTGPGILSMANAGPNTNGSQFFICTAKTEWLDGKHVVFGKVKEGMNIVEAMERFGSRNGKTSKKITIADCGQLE

For orientation: IC50 means the point on the concentration scale where inhibition reaches its midpoint. For the compound `CO[C@@H](C)c1ncc(N2CCN(CC(F)(F)F)CC2)cc1-c1c2c3cc(cc4c3n1CCC4)-c1csc(n1)C[C@H](NC(=O)[C@H]1C[C@@H]1C(F)F)C(=O)N1CCC[C@H](N1)C(=O)OCC(C)(C)C2` (atropisomer, axis not shown; (M)) [Example 21, (1S,2S)-2-(difluoromethyl)-N-[(7S,13S)-(20M)-20-[2-[(1S)-1-methoxyethyl]-5-[4-(2,2,2-trifluoroethyl)piperazin-1-yl]-3-pyridyl]-17,17-dimethyl-8,14-dioxo-15-oxa-4-thia-9,21,30,31-tetrazahexacyclo[23.3.1.1^2,5.1^9,13.0^19,27.0^21,26]hentriaconta-1 (28),2,5 (31),19,25 (29),26-hexaen-7-yl]cyclopropanecarboxamide], the IC50 at KRAS G12C-BRAF complex came out at 15 nM; in assay [1], 15.3 nM; with AGS cells (KRAS G12D), 56.2 nM; in the assay on SW620 cells (KRAS G12V), 1.9 nM; in assay [2] it was 8.8 nM; in assay [3], 1.4 nM. In addition, in assay [4], 2.1 nM corresponded to half-maximal inhibition (IC50).

As to `CO[C@@H](C)c1ncc(N2CCOCC2)cc1-c1c2c3cc(cc4c3n1CC(F)(F)C4)-c1csc(n1)C[C@H](NC(=O)[C@H]1C[C@@H]1C)C(=O)N1CCC[C@H](N1)C(=O)OCC(C)(C)C2` (atropisomer, axis not shown; (M)) [Example 75, (1S,2S)-N-[(7S,13S)-23,23-difluoro-(20M)-20-[2-[(1S)-1-methoxyethyl]-5-morpholino-3-pyridyl]-17,17-dimethyl-8,14-dioxo-15-oxa-4-thia-9,21,30,31-tetrazahexacyclo[23.3.1.1^2,5.1^9,13.0^19,27.0^21,26]hentriaconta-1 (28),2,5 (31),19,25 (29),26-hexaen-7-yl]-2-methyl-cyclopropanecarboxamide], the IC50 at KRAS G12C-BRAF complex was determined as 29.7 nM; in assay [1], 20.2 nM; in the assay with AGS cells (KRAS G12D), 58.7 nM; in the assay with SW620 cells (KRAS G12V), 3.6 nM; in assay [2], 23.6 nM; in assay [3], 2.6 nM. In assay [4], this compound displayed an IC50 of 4.9 nM.

For `CO[C@@H](C)c1ncc(N2CCN(CCN3CCCC3=O)CC2)cc1-c1c2c3cc(cc4c3n1CCC4)-c1csc(n1)C[C@H](NC(=O)[C@H]1[C@H](C)[C@@H]1C)C(=O)N1CCC[C@H](N1)C(=O)OCC(C)(C)C2` (atropisomer, axis not shown; (M)) [Example 121, (1r,2R,3S)-N-[(7S,13S)-(20M)-20-[2-[(1S)-1-methoxyethyl]-5-[4-[2-(2-oxopyrrolidin-1-yl)ethyl]piperazin-1-yl]-3-pyridyl]-17,17-dimethyl-8,14-dioxo-15-oxa-4-thia-9,21,30,31-tetrazahexacyclo[23.3.1.1^2,5.1^9,13.0^19,27.0^21,26]hentriaconta-1 (28),2,5 (31), 19,25 (29),26-hexaen-7-yl]-2,3-dimethyl-cyclopropanecarboxamide], the IC50 came out at 13 nM at KRAS G12C-BRAF complex; 1.6 nM in assay [1]; 2.4 nM with AGS cells (KRAS G12D); 0.3 nM in the assay with SW620 cells (KRAS G12V); 3.4 nM in assay [2]; 0.3 nM in assay [3]. Further, the IC50 in assay [4] is 0.9 nM.

In the case of `CO[C@@H](C)c1ncc(N2CCN(C)CC2)cc1-c1c2c3cc(cc4c3n1CCCO4)-c1csc(n1)C[C@H](NC(=O)[C@H]1[C@H](C)[C@@H]1C)C(=O)N1CCC[C@H](N1)C(=O)OCC(C)(C)C2` (atropisomer, axis not shown; (M)) [Example 100, (1r,2R,3S)-N-[(7S,13S)-(20M)-20-[2-[(1S)-1-methoxyethyl]-5-(4-methylpiperazin-1-yl)-3-pyridyl]-17,17-dimethyl-8,14-dioxo-15,25-dioxa-4-thia-9,21,31,32-tetrazahexacyclo[24.3.1.1^2,5.1^9,13.0^19,28.0^21,27]dotriaconta-1 (29),2,5 (32),19,26 (30),27-hexaen-7-yl]-2,3-dimethyl-cyclopropanecarboxamide], the concentration for half-maximal inhibition (IC50) turned out to be 33.1 nM on KRAS G12C-BRAF complex; 2.7 nM in assay [1]; 8.2 nM with AGS cells (KRAS G12D); 0.7 nM in the assay on SW620 cells (KRAS G12V); 4.1 nM in assay [2]; 0.7 nM in assay [3]. Besides, the IC50 in assay [4] is 1 nM.

For `CO[C@@H](C)c1ncc(N2CCOCC2)cc1-c1c2c3cc(cc4c3n1CCO4)-c1csc(n1)C[C@H](NC(=O)[C@H]1[C@@H]3COC[C@@H]31)C(=O)N1CCC[C@H](N1)C(=O)OCC(C)(C)C2` (atropisomer, axis not shown; (M)) [Example 10, (1S,5R,6r)-N-[(7S,13S)-(20M)-20-[2-[(1S)-1-methoxyethyl]-5-morpholino-3-pyridyl]-17,17-dimethyl-8,14-dioxo-15,24-dioxa-4-thia-9,21,30,31-tetrazahexacyclo[23.3.1.1^2,5.1^9,13.0^19,27.0^21,26]hentriaconta-1 (28),2,5 (31), 19,25 (29),26-hexaen-7-yl]-3-oxabicyclo[3.1.0]hexane-6-carboxamide], the concentration for half-maximal inhibition (IC50) against KRAS G12C-BRAF complex was 5.9 nM; in assay [1], 2.2 nM; in the assay with AGS cells (KRAS G12D) it was 4.6 nM; in the assay with SW620 cells (KRAS G12V), less than 0.6 nM; in assay [2], 1.4 nM; in assay [3], 1.2 nM. In assay [4], this compound displayed a half-maximal inhibitory concentration (IC50) of 3.3 nM.

For the compound `CO[C@@H](C)c1ncc(N2CCOCC2)cc1-c1c2c3cc(cc4c3n1CC(C)(C)O4)-c1csc(n1)C[C@H](NC(=O)[C@H]1[C@H](C)[C@@H]1C)C(=O)N1CCC[C@H](N1)C(=O)OCC(C)(C)C2` (atropisomer, axis not shown; (M)) [Example 61, (1r,2R,3S)-N-[(7S,13S)-(20M)-20-[2-[(1S)-1-methoxyethyl]-5-morpholino-3-pyridyl]-17,17,23,23-tetramethyl-8,14-dioxo-15,24-dioxa-4-thia-9,21,30,31-tetrazahexacyclo[23.3.1.1^2,5.1^9,13.0^19,27.0^21,26]hentriaconta-1 (28),2,5 (31), 19,25 (29),26-hexaen-7-yl]-2,3-dimethyl-cyclopropanecarboxamide], the IC50 against KRAS G12C-BRAF complex is 50.9 nM; in assay [1] it was 22.6 nM; in the assay on AGS cells (KRAS G12D), 33.4 nM; in the assay on SW620 cells (KRAS G12V), 3 nM; in assay [2], 10.3 nM; in assay [3] it was 1.1 nM. This compound also yielded a half-inhibitory concentration (IC50) in assay [4] of 8.5 nM.

Take `CO[C@@H](C)c1ncc(N2CCN(C)CC2)cc1-c1c2c3cc(cc4c3n1CCO4)-c1csc(n1)C[C@H](NC(=O)[C@H]1C[C@@H]1c1cncnc1)C(=O)N1CCC[C@H](N1)C(=O)OCC(C)(C)C2` (atropisomer, axis not shown; (M)) [Example 93, (1S,2S)-N-[(7S,13S)-(20M)-20-[2-[(1S)-1-methoxyethyl]-5-(4-methylpiperazin-1-yl)-3-pyridyl]-17,17-dimethyl-8,14-dioxo-15,24-dioxa-4-thia-9,21,30,31-tetrazahexacyclo[23.3.1.1^2,5.1^9,13.0^19,27.0^21,26]hentriaconta-1 (28),2,5 (31), 19,25 (29),26-hexaen-7-yl]-2-pyrimidin-5-yl-cyclopropanecarboxamide]: the concentration for half-maximal inhibition (IC50) against KRAS G12C-BRAF complex was 14.8 nM; in assay [1] it was 3 nM; with AGS cells (KRAS G12D), 5 nM; in the assay on SW620 cells (KRAS G12V), 1 nM; in assay [2], 3.5 nM; in assay [3], 1.2 nM. The compound further returned a 50% inhibitory concentration (IC50) in assay [4] of 1.2 nM.

The record behind these values is patent US20240417410A1, “TRICYCLIC COMPOUNDS FOR THE TREATMENT OF CANCER” (Hoffmann-La Roche Inc., priority 2023, published 2024).
